This is an account of results in patent publication EP0102195A2, “Substituted aza bicycloalkyl derivatives with dopamine antagonist activity” (BEECHAM GROUP PLC, priority 1982, dated 1984).

Structures are written as SMILES.

The term ED50 denotes the dose at which the effect has come halfway, by size or by number of responders.

One experiment deals with Dopamine receptor. Nature of the experiment: Inhibition of apomorphine induced climbing in the mouse (central dopamine receptor blocking activity). As to conditions: apomorphine 1 mg/kg s.c. The class given is in vivo.
The test system of another experiment is Heidenhain pouch. Nature of the experiment: Heidenhain pouch test (gastric motility enhancing activity). The class given is in vivo, Male Beagle dogs. As to conditions: Beagle dogs; for period of activity: Heidenhain pouch.
The subject of the next experiment is rats. Nature of the experiment: Increase in intragastric pressure (gastric motility enhancing activity). It is filed as in vivo. As to conditions: 0.5 mg/kg s.c.; conscious restrained rats; average height of pressure waves, 40 minutes post dose vs pre-dose, Student's t test. How it is done:
Intragastric pressure changes were recorded from previously starved conscious but restrained rats using a saline filled catheter inserted into the lumen of the stomach via a permanent gastric fistula. The catheter was connected to a physiological pressure transducer and pressure changes recorded on a hot wire pen recorder. In each animal a pre-dose period of 40 minutes was allowed to obtain a measure of spontaneous activity. An index of activity was obtained by measuring the average height of pressure waves during 10 minute periods. Values for 4 such periods were obtained during assessment of spontaneous activity and for 40 minute period after administration of compound. Student's "t" test was applied to the difference in average values obtained for spontaneous and post compound activity.

For another experiment, the system named is dog. Briefly: Anti-emetic activity in the dog (apomorphine-induced vomiting). It is filed as in vivo. As to conditions: for ED50: Canis lupus familiaris, sc, 30 minutes prior to apomorphine HCl 0.1 mg/kg subcutaneously, vomiting response. How it is done: Compounds were administered subcutaneously 30 minutes prior to administration of a standard dose of apomorphine HCl (0.1 mg/kg subcutaneously) and the vomiting response compared to that obtained when the same animals were dosed with apomorphine HC1 and vehicle only.

`CCOC(=O)N(C)c1ccc(S(=O)(=O)N(C)C)cc1C(=O)N[C@@H]1C[C@H]2CC[C@@H](C1)N2Cc1ccccc1` [Example 4, 5-Dimethylaminosulphonyl-2-(N-methyl-N-ethoxycarbonyl)amino-N [3'8-(8'-benzyl-8'-azabicyclo{3.2.1]octyl)] benzamide]: the “inhibition of apomorphine induced climbing” value (shortened to “inhibition”) in the experiment on Dopamine receptor (dose of 10 mg/kg s.c.) was “inactive”.

Take `CN(C)S(=O)(=O)c1ccc(NC2CC2)c(C(=O)N[C@@H]2C[C@H]3CC[C@@H](C2)N3Cc2ccccc2)c1` [Example 6]: the period of activity result with Heidenhain pouch is given as “greater than 1 hour”. Also, the “motility of the pouch (activity)” value in the experiment with Heidenhain pouch (dose of 0.5 mg/kg s.c.) is “active”. For the same molecule, the “inhibition” value with Dopamine receptor (dose of 10 mg/kg s.c.) is “inactive”. For the same molecule, in the experiment on rats, the “index of activity post administration” value is listed as “significantly increased”. For the same molecule, in the experiment on dog, it took a dose of 0.5 mg/kg to reach the 50% effect level (ED50).

As for `CN(C)c1ccc(S(=O)(=O)N(C)C)cc1C(=O)N[C@@H]1C[C@H]2CC[C@@H](C1)N2Cc1ccccc1` [Example 2, 2-Dimethylamino-5-dimethylaminosulphonyl-ls(3'6-(8'-benzyl-8'-azabicyclo{3.2.1]octyl)]-benzamide], the “motility of the pouch (activity)” value in the experiment on Heidenhain pouch (dose of 0.5 mg/kg s.c.) is reported as “active”. Further, the “inhibition” value with Dopamine receptor (dose of 10 mg/kg s.c.) was “inactive”. In the experiment with dog, the ED50 came to 0.1 mg/kg.

Turning to `CNc1cccc(OC)c1C(=O)N[C@@H]1C[C@H]2CC[C@@H](C1)N2Cc1ccccc1` [Example 12, 2-Methylamino-6-methoxy-N-[3β-(8-benzyl-8-azabicyclo (3,2,1)octyl)]benzamide], in the experiment with dog (dose of 0.01 mg/kg s.c., apomorphine HCl 0.1 mg/kg subcutaneously), the anti-emetic activity entry is listed as “active”.

For the molecule `CNc1ccc(S(=O)(=O)N(C)C)cc1C(=O)N[C@@H]1C[C@H]2CC[C@@H](C1)N2Cc1ccccc1` [Example 3, 5-Dimethylaminosulphonyl-2-methylamino-N(3'β(8'-benzyl-8'-azabicyclo{3.2.1}octyl)]benzamide], the period of activity result in the experiment on Heidenhain pouch is given as “greater than 1 hour”. Also, the “motility of the pouch (activity)” value in the experiment on Heidenhain pouch (dose of 0.1 mg/kg s.c.) was “active”. For the same molecule, the “inhibition” value with Dopamine receptor (dose of 25 mg/kg s.c.) is “inactive”. Further, in the experiment on rats, the “index of activity post administration” value is recorded as “significantly increased”.

As for `CCNc1ccc(S(=O)(=O)N(C)C)cc1C(=O)N[C@@H]1C[C@H]2CC[C@@H](C1)N2Cc1ccccc1` [Example 5, 5-Dimethylaminosulphonyl-2-ethylamino-N[3 ε'-(8' -benzyl-8' -azabicyclo'{3.2.1)octyl)]-benzamide], the “inhibition” value in the experiment with Dopamine receptor (dose of 10 mg/kg s.c.) is “inactive”. The “index of activity post administration” value in the experiment with rats is recorded as “significantly increased”.
